The text below walks through data of patent US9611286B2, “Ruthenium carbon monoxide releasing molecules and uses thereof” (Alfama, Inc., priority 2011, dated 2017).

Structures are written as SMILES.

Data set [1] in a line: Determination of CO in tissues. Type of data set: in vivo. The conditions noted are these: one hour after i.v. administration, non-infected mice. As for the experimental part: It is hypothesized that Compound 1 promotes/increases erythrophagocytosis.
CO was quantified in different tissues as previously described (see, e.g., Vreman et al., Anal Biochem (2005) 341:280-289). Briefly, CO was liberated as gas in a closed vial by adding 25 μL of water and 5 μL of sulfosalicylic acid (SSA, 30% [wt/vol]) to 30 μL of diluted sample after being homogenized. The vials were incubated on ice for at least 10 min before being analyzed. The gas in the headspace of the vials was analyzed quantitatively with a gas chromatograph (GC) equipped with a reducing-compound photometry detector (RCP detector) (Peak Laboratories, Mountain View, Calif.), which allows to quantify CO in gas at concentrations as low as 1-2 parts per billion (ppb). The amount of CO was calculated using a calibration curve prepared from CO standards. Briefly, blood was collected from the tail of the mice to capillary tubes (VWR) with heparin (100 i.u./ml in PBS 1×; LEO Pharma Inc.), transferred into AVOXimeter 4000 cuvettes (ITC) where the levels of carboxyhemoglobin (COHb), oxyhemoglobin (O2Hb) and methemoglobin (MetHb) were measured in a portable AVOXimeter 4000 CO-oximeter (ITC). Results are shown as mean percentage of total hemoglobin species in circulation.

Data set [2] deals with P. berghei ANKA. The data set is described as follows: In vitro replication of P. berghei ANKA. Type of data set: cell-based, Plasmodium berghei. To be noted: 24 h. As for the experimental part: The data led the inventors to wonder whether Compound 1 could have a direct anti-parasitic effect on P. berghei ANKA and P. falciparum parasites. To this end, the effect of Compound 1 and the anti-malarial chloroquine (CQ) was monitored on the in vitro replication of P. falciparum 3D7 isolate and P. berghei ANKA for 48 h and 24 h, respectively.

Data set [3] can be described thus: Quantification of COHb in peripheral blood. Type of data set: in vivo, C57BL/6 mice. To be noted: infected mice, day 3 after infection. As for the experimental part: Blood was collected from the tail of the mice to capillary tubes (VWR) with heparin (100 i.u./ml in PBS 1×; LEO Pharma Inc.), transferred into AVOXimeter 4000 cuvettes (ITC) where the levels of carboxyhemoglobin (COHb), oxyhemoglobin (02Hb) and methemoglobin (MetHb) were measured in a portable AVOXimeter 4000 CO-oximeter (ITC). Results are shown as mean percentage of total hemoglobin species in circulation.

In a further data set the test system is HO-1. Nature of the data set: HO-1 mRNA expression by qRT-PCR in infected mice. The class given is in vivo, C57BL/6 mice. To be noted: day 3 after infection. The procedure: (§1) Mice were sacrificed, when infected control mice presented signs of ECM, and perfused intracardially with PBS to remove circulating RBC and leukocytes from the organs. RNA was isolated from brains, livers and lungs using Trizol Reagent (Invitrogen, Life technologies), according to the manufacturer's recommendation. The synthesis of the first-strand cDNA from the RNA templates was carried out using the Transcriptor First Strand cDNA Synthesis Kit (Roche). RT-PCR reactions were performed in the presence of SYBER Green (SYBER Green PCR master mix, Applied Biosystems) on an ABI PRISM 7500Fast (Applied Biosystem). Oligonucleotides used for the specific amplification of genes include:
(§2) The relative changes in gene expression between experimental and control groups were calculated by the Pfaffl method using hprt as internal control gene. Statistical Analysis
Background: Quantitative PCR measures a nucleic acid by following its amplification.

The test system of data set [4] is P. berghei ANKA. The data set is described as follows: Parasite r18S (pRBC accumulation) in brain by qRT-PCR. Type of data set: in vivo, C57BL/6 mice. The procedure: as §1, §2
Data set [5] is described as follows: Brain histology (hematoxylin and eosin) in ECM. Type of data set: in vivo, C57BL/6 mice. To be noted: P. berghei ANKA-infected mice. As for the experimental part:
(§3) For evaluation of histological features, mice were deeply anesthetized until cessation of breathing when infected control mice presented signs of ECM or ALI. The livers, lungs, and brains were removed and fixed in 10% buffered formalin for 24-72 h. Four-micron sections were cut from paraffin-embedded tissues and stained with hematoxylin and eosin according to standard procedures. Histological analyses were performed on a Leica microscope DM 2500 (Leica Microsystems).

Data set [6] in a line: Lung histology (hematoxylin and eosin) in M-AALI. The class given is in vivo. The conditions noted are these: infected DBA/2 mice. The procedure:
as §3

As to `C[SH]([C@@H]1OC(CO)[C@H](O)[C@H](O)C1O)[Ru]([Cl])([Cl])([CH]=O)([CH]=O)[CH]=O` (stereo partly shown) [Compound 1, Tricarbonyldichloro(methylthiogalactopyranoside) Ru(II)], the “levels of CO in organs” value in data set [1] is “higher levels of CO in the liver and spleen”. Further, the “inhibition of in vitro growth” value with P. berghei ANKA [2] is listed as “does not inhibit in vitro growth”. The “COHb levels in the blood” value in data set [3] is “without causing measurable increase in COHb levels”. In addition, in the data set with HO-1, the “HO-1 mRNA expression in brain vs non-infected and Compound 2-treated mice” value is “not significantly different”. In the data set with P. berghei ANKA [4], the “pRBC accumulation in the brain vs Compound 2-treated mice” value is listed as “significantly lower”. For the same compound, the “neuropathologic features in brain sections” value in data set [5] is “less hemorrhages, and the vessels had lower accumulation of pRBC and leukocytes”. Also, the “vascular congestion with pRBCs in lung tissue” value in data set [6] is “major differences in the vascular congestion with pRBCs”.
